Results: the NIST ThermoML archive (doi:10.1016/j.jct.2015.07.005)
Values joined by “and” are separate entries in the source; they are usually repeats but may differ in a detail not shown here. Equal entries are not always repeated.

Settings: Gas, Frequency=0.005 MHz, Spherical cavity resonance method

C [methane]
Settings	speed of sound
280.01 K, 500.03 kPa	434.02 m/s and 434.03 m/s
280.01 K, 500.04 kPa	434.03 m/s
280.01 K, 500.18 kPa	434.03 m/s
280.02 K, 500.03 kPa	434.03 m/s and 434.03 m/s
280.02 K, 500.04 kPa	434.03 m/s and 434.02 m/s and 434.03 m/s
280.02 K, 500.18 kPa	434.03 m/s
280.02 K, 500.19 kPa	434.03 m/s and 434.03 m/s and 434.03 m/s
293.27 K, 394.31 kPa	443.98 m/s and 443.97 m/s and 443.97 m/s
293.27 K, 394.32 kPa	443.97 m/s and 443.97 m/s and 443.97 m/s
293.28 K, 394.32 kPa	443.97 m/s [middle of 6 runs]
293.28 K, 394.33 kPa	443.98 m/s and 443.98 m/s and 443.97 m/s
293.28 K, 394.34 kPa	443.98 m/s
293.28 K, 394.35 kPa	443.98 m/s and 443.98 m/s
293.29 K, 394.36 kPa	443.98 m/s and 443.97 m/s
319.52 K, 429.9 kPa	462.06 m/s
319.53 K, 429.91 kPa	462.06 m/s
319.55 K, 428.61 kPa	461.97 m/s and 461.97 m/s
319.87 K, 471.86 kPa	462.12 m/s
319.87 K, 471.87 kPa	462.12 m/s
319.88 K, 471.88 kPa	462.12 m/s
319.88 K, 471.91 kPa	462.13 m/s
319.89 K, 471.91 kPa	462.13 m/s and 462.13 m/s
319.89 K, 471.92 kPa	462.13 m/s
319.89 K, 471.93 kPa	462.12 m/s and 462.13 m/s
319.94 K, 430.41 kPa	462.32 m/s
319.94 K, 430.42 kPa	462.32 m/s
319.95 K, 429.13 kPa	462.24 m/s
319.96 K, 429.13 kPa	462.24 m/s
339.35 K, 456 kPa	474.76 m/s and 474.76 m/s
339.88 K, 456.67 kPa	475.08 m/s
339.89 K, 456.67 kPa	475.08 m/s
359.27 K, 481.98 kPa	486.94 m/s
359.28 K, 480.58 kPa	486.84 m/s
359.28 K, 481.81 kPa	486.76 m/s
359.28 K, 481.99 kPa	486.94 m/s
359.29 K, 480.58 kPa	486.85 m/s
359.85 K, 482.79 kPa	487.31 m/s
359.86 K, 482.59 kPa	487.15 m/s
359.86 K, 482.79 kPa	487.31 m/s
359.87 K, 482.6 kPa	487.15 m/s
360.03 K, 529.63 kPa	487.35 m/s
360.03 K, 529.64 kPa	487.35 m/s and 487.35 m/s
360.03 K, 529.66 kPa	487.35 m/s
360.04 K, 529.66 kPa	487.34 m/s and 487.34 m/s
360.04 K, 529.67 kPa	487.33 m/s and 487.33 m/s
379.2 K, 507.87 kPa	498.66 m/s and 498.66 m/s
379.78 K, 508.56 kPa	498.97 m/s and 498.98 m/s
399.24 K, 533.63 kPa	510.01 m/s and 510.02 m/s
399.82 K, 534.48 kPa	510.39 m/s and 510.39 m/s
399.99 K, 471.94 kPa	510.49 m/s and 510.5 m/s and 510.49 m/s
399.99 K, 471.95 kPa	510.47 m/s and 510.48 m/s
399.99 K, 471.96 kPa	510.47 m/s
399.99 K, 471.97 kPa	510.47 m/s
399.99 K, 471.98 kPa	510.47 m/s
400 K, 471.96 kPa	510.46 m/s
419.54 K, 559.42 kPa	521.02 m/s
419.55 K, 559.43 kPa	521.03 m/s
419.56 K, 559.63 kPa	521.2 m/s and 521.2 m/s
419.99 K, 560 kPa	521.28 m/s
420 K, 560.01 kPa	521.28 m/s and 521.29 m/s
420.02 K, 560.19 kPa	521.47 m/s
420.02 K, 560.2 kPa	521.46 m/s
439.94 K, 496.85 kPa	532.03 m/s
439.94 K, 496.86 kPa	532.02 m/s and 532.03 m/s
439.94 K, 496.87 kPa	532.02 m/s
439.94 K, 496.88 kPa	532.01 m/s [middle of 5 runs]
449.69 K, 597.89 kPa	537.24 m/s
449.69 K, 597.9 kPa	537.24 m/s [middle of 6 runs]
449.7 K, 597.88 kPa	537.22 m/s
449.7 K, 597.89 kPa	537.22 m/s and 537.23 m/s
449.7 K, 597.9 kPa	537.23 m/s and 537.24 m/s and 537.23 m/s
449.71 K, 597.88 kPa	537.22 m/s and 537.21 m/s
449.71 K, 597.89 kPa	537.22 m/s [middle of 5 runs]
449.72 K, 597.88 kPa	537.2 m/s
449.72 K, 597.89 kPa	537.21 m/s [middle of 4 runs]
449.73 K, 597.86 kPa	537.19 m/s
449.73 K, 597.87 kPa	537.2 m/s and 537.19 m/s and 537.19 m/s
449.74 K, 597.86 kPa	537.19 m/s
449.74 K, 597.87 kPa	537.2 m/s and 537.2 m/s
449.77 K, 597.88 kPa	537.2 m/s and 537.2 m/s
449.78 K, 597.9 kPa	537.2 m/s
449.79 K, 597.9 kPa	537.2 m/s
479.91 K, 495.54 kPa	552.38 m/s
479.92 K, 495.51 kPa	552.4 m/s and 552.39 m/s
479.92 K, 495.52 kPa	552.4 m/s
479.92 K, 495.54 kPa	552.39 m/s
479.92 K, 495.55 kPa	552.39 m/s
479.92 K, 495.57 kPa	552.38 m/s and 552.39 m/s
479.92 K, 539.8 kPa	552.38 m/s and 552.39 m/s
479.92 K, 539.81 kPa	552.39 m/s
